Experimental data reported in a melting point compilation (Tetko et al.; mined from patent text by program, amines drawn as free bases though some values may be those of a salt).

| Compound | melting point [°C] |
| --- | --- |
| Cc1ccsc1-c1ccc(C(C)C(=O)O)cc1 (stereo not drawn) | 95 to 96 |
| O=C1NCCC[C@@H]1NS(=O)(=O)c1ccc(F)cc1 | 153 to 156 |
| NC(=O)c1cccc(OCc2ccc(F)cc2)c1 | 161 to 162 |
| CCCCC[C@H](CC(=O)NCc1c(C(C)C)cccc1C(C)C)c1cccc2c1OCO2 | 133 to 134 |
| Cn1nc(C(F)(F)F)cc1-c1ccc(F)cc1F | 37 to 38 |
| Cc1ccc(-n2nc(Sc3ccc(Cl)cc3)c(C)c(C#N)c2=O)cc1 | 190 to 192 |
| N#CN=C1SCCN1Cc1c(Cl)ccc(C(=O)O)c1Cl | 208 |
| N#CC(Br)(Br)c1ccccn1 | 59 to 61 |
| CON=C1CN(c2c(F)cc3c(=O)c(C(=O)O)cn(C4CC4)c3c2OC)CC12CC2 | 219 to 221 |
| CC(C)n1nc(-c2cc(-n3cccc3)cnc2-c2ccccc2)ccc1=O | 189 to 190 |
| NC(=O)N(O)CC=Cc1ccccc1Sc1ccc(Cl)cc1 | 126 to 128 |
| CSc1nc(C)nc(SC)c1NC(=O)CCCCCSc1nc2ccccc2o1 | 148 to 151 |
| O[C@@H](COc1cccc(-c2noc3ccsc23)c1)CN1CCN(c2ccccc2)CC1 | 127 to 129 |
| Cc1nnc2ccc(-c3ccc([N+](=O)[O-])c(C(F)(F)F)c3)nn12 | 293 to 295 |
| CC(C)Cn1c(CO)c(OCCCC(F)(F)F)c2cc(OCc3ccccc3)ccc2c1=O | 112 to 113 |
| COC(=O)[C@H](Cc1c[nH]cn1)NC(=O)[C@H](CCC(N)=O)NC(=O)OCc1ccccc1 | 186 to 188 |
| CCOC(=O)c1ccc(-c2ccc(-c3ccccc3)c(-c3ccc4c(c3)C(C)(C)CCC4(C)C)c2)nc1 | 105 to 107 |
| N#Cc1c(F)ccc(F)c1N | 90 to 92 |
| CCOc1cc(N2CCOCC2)c(OCC)cc1N=NNN1CCOCC1 | 137 to 139 |
| N#Cc1coc2ccc3ccc(O)cc3c2c1=O | 289 to 292 |
| NC(c1ccccc1)c1ccc(O)cc1 (stereo not drawn) | 113 to 115 |
| CC(Oc1c(Cl)cccc1Cl)C(N)=O (single isomer, unassigned; (-)) | 192 to 193 |
| c1ccc(C(OC2CCN(c3ccc4ncnn4n3)CC2)c2ccccc2)cc1 | 137 to 139 |
| COc1ccc(-c2c(C)ccn2-c2ccc(S(C)(=O)=O)cc2)cc1 | 131 to 132 |
| COc1cc(OCc2ccccn2)ccc1/C=C/c1cc(/C=C/c2ccc3[nH]cnc3c2)n[nH]1 | 135 to 142 |

| Compound | melting point [°C] |
| --- | --- |
| N[C@@H]1C(=O)N[C@@H]1COC(=O)c1ccccc1 (relative stereo) | 150 to 151 |
| O=C(O)c1ccc2c(c1)c(=O)[nH]c(=O)n2CCCCN1CCC(OC(c2ccccc2)c2ccccc2)CC1 | 161 to 163 |
| OC1CCN(CC(O)c2cc(-c3ccccc3)on2)CC1 (stereo not drawn) | 117 to 119 |
| CNc1cc(NC)c(C(=O)NCCC(=O)OC)cc1NC(=O)c1ccc(C#N)cc1 | 208 to 210 |
| CCCCc1oc2ccccc2c1C(=O)N(C)Cc1ccc2cc(O)ccc2c1 | 110 to 113 |
| CNC(=O)C(C)C(O)(Cn1cncn1)c1ccc(Cl)cc1Cl (stereo not drawn) | 242 to 244 |
| O=C(O)c1snc(-c2ccccc2)c1O | 161 to 163 |
| COC(=O)c1c(Cl)ccc2[nH]c(Sc3cccc4c(S(C)(=O)=O)c[nH]c34)nc12 | 284 to 286 |
| COc1ccc(N2CCN(CCC(O)COc3ccccc3)CC2)cc1 (stereo not drawn) | 95 to 97 |
| C=C(CCCCC)C(=O)c1ccc(OCC(=O)O)c(Cl)c1Cl | 103 to 106 |
| CCCCCCCCCCCCCCCCCCN(CCCCCCCCCCCCCCCCCC)CCCNC=O | 42 to 46 |
| Fc1cc(CCl)c(F)cc1CCl | 62.5 to 64.5 |
| O[C@@H]1c2ccccc2C=C[C@H]1N1CCCC1 (relative stereo) | 140 to 141 |
| C=C(CO)COC(=O)NCCCCCCCCCCCCCCC | 60 to 62 |
| CC(=O)c1cc(-c2ccc(S(C)(=O)=O)cc2)n(-c2ccc(F)cc2)n1 | 207 to 209 |
| CC(=O)Nc1cc(I)ccc1Sc1ccc([N+](=O)[O-])cc1[N+](=O)[O-] | 224 to 226 |
| Cc1onc(-c2ccccc2)c1C(=O)NCCCN1CCN(c2cc(Cl)ccc2O)CC1 | 92 to 98 |
| COc1cccc(S(=O)(=O)N2CCCC2=O)c1 | 108 to 109 |
| CCCC1(CCC(C)=O)Cc2cc(CC(=O)O)c(Cl)c(Cl)c2C1=O (stereo not drawn) | 137 to 139 |
| N#Cc1ncnc2[nH]ccc12 | 237 to 238 |
| O=C(COc1cc(-c2cccs2)nc2ccccc12)N1CCOCC1 | 198 |
| COC(=O)CCc1cc2cc(C(=O)c3ccccc3)ccc2n1S(=O)(=O)c1ccccc1 | 37 to 51 |
| CCCCC(CC)COc1cccc2c1C(=O)c1cccc(OCC(CC)CCCC)c1C2=O (stereo not drawn) | 105 |
| CC(C)(C)C(=O)c1c[nH]c2ncc(-c3ccc(N4CCN(S(C)(=O)=O)CC4)cc3)nc12 | 288 to 290 |
| Cc1c(F)c(F)c(Cl)c2c1c(=O)c(C(=O)O)cn2-c1cc(N)c(F)cc1F | 271 to 274 |

| Compound | melting point [°C] |
| --- | --- |
| NC(c1ccccc1)c1ccc(C(N)c2ccccc2)cc1 (stereo not drawn) | 123 to 127 |
| CCc1noc(-c2cn(-c3cc(OC)ccc3Cl)cn2)n1 | 67 to 69 |
| CNS(=O)(=O)CCc1ccc2[nH]ccc2c1 | 122 to 124 |
| O=C1NC(=O)c2c1c(O)nc1cc(Cl)ccc21 | > 350 |
| Cc1nc2ccccc2c(=O)n1NC(=O)Nc1ccc(Cl)cc1 | 228 to 230 |
| O=C1Nc2c(Cl)cccc2C12COc1cc3c(cc12)CCO3 (stereo not drawn) | > 250 |
| Cc1ncsc1C(C)(O)c1cccs1 (stereo not drawn) | 146 to 148 |
| O=C1OC(CCCCN2CCN(c3ccccc3O)CC2)CN1c1ccccc1 (stereo not drawn) | 123 to 129 |
| Nc1ncnc2c1c(-c1ccc(OCc3ccccc3)cc1)cn2-c1cccc(OCCCl)c1 | 146 to 148 |
| N#Cc1ccc(Oc2ccc(CBr)cc2)cc1C#N | 101 to 102 |
| COc1ccc(-n2nc(O)c3c(=O)c4ccc(Cl)cc4[nH]c3c2=O)cc1 | 371 to 373 |
| NC(=O)NN=Cc1ccc(Oc2ccc(F)cc2)c(F)c1 | 233 to 234 |
| O=c1[nH]c(-c2cccc(Oc3ccc4c(c3)S(=O)(=O)N=C3CCCN34)c2)no1 | > 250 |
| CCCCc1c(-c2cc(C)c(O)c(C)c2)[nH]c2ccccc12 | 83.1 to 84.2 |
| O=C1CCC(NC(=O)OCc2ccccc2)(C(=O)OCc2ccc([N+](=O)[O-])cc2)O1 (stereo not drawn) | 127 to 128 |
| Cc1ccc(-c2ccc([Si](C)(C)C)cc2)nc1 | 66.1 |
| CS(=O)c1[nH]ccc1[N+](=O)[O-] (stereo not drawn) | 162 to 164 |
| CC(C)(C)OC(=O)NC1COCCCC=CC2CC2(C(=O)NS(=O)(=O)C2CC2)NC(=O)C2CC(OC(=O)Nc3ccccc3Oc3ccccc3)CN2C1=O (stereo not drawn) | 151 to 153 |
| COc1cc(C#Cc2cnc(N)nc2N)cc(OC)c1OC | 202 to 204 |
| COc1ccc(C(O)(c2ccc(OC)cc2)C(O)(c2ccccc2)c2ccccc2)cc1 | 163 to 165 |
| CC(C)(C)c1cc(I)c2c(c1)CNC1(O2)C2CC3CC(C2)CC1C3 (stereo not drawn) | 162 to 164 |
| O=C1C2=C(CCCC2)C(=O)N1c1c(F)cc(F)cc1F | 91 to 92 |
| OCc1ccc(OCc2coc(-c3ccccc3)n2)cc1 | 141 to 142 |
